Experimental data published in US9492471B2, “Methods of treating a disease or disorder associated with Bruton'S Tyrosine Kinase” (Celgene Avilomics Research, Inc., priority 2013, dated 2016).
Where two headings read alike, the source gives them in different places.

How the values were obtained:
Assay in all cases: HotSpot kinase profiling
Type in all cases: biochemical
[1] = target: T1, CDK9/cyclin K (Homo sapiens, UniProt P50750)
T1 construct: purchased Reaction Biology Corp
Method in brief: (§1)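 P81 filtration radiometric readout; 2 h incubation at room temperature; 0.1% phosphoric acid wash; DMSO negative control; % inhibition, mean of replicate runs.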

[2] = target: T2, CK1d (Homo sapiens, UniProt P48730)
T2 construct: purchased Reaction Biology Corp
Method in brief: as §1

[3] = target: T3, COT1/MAP3K8 (Homo sapiens, UniProt P41279)
T3 construct: purchased Reaction Biology Corp
Method in brief: as §1

[4] = target: T4, GRK7 (Homo sapiens, UniProt Q8WTQ7)
T4 construct: purchased Reaction Biology Corp
T4 sequence (Q8WTQ7 1-553): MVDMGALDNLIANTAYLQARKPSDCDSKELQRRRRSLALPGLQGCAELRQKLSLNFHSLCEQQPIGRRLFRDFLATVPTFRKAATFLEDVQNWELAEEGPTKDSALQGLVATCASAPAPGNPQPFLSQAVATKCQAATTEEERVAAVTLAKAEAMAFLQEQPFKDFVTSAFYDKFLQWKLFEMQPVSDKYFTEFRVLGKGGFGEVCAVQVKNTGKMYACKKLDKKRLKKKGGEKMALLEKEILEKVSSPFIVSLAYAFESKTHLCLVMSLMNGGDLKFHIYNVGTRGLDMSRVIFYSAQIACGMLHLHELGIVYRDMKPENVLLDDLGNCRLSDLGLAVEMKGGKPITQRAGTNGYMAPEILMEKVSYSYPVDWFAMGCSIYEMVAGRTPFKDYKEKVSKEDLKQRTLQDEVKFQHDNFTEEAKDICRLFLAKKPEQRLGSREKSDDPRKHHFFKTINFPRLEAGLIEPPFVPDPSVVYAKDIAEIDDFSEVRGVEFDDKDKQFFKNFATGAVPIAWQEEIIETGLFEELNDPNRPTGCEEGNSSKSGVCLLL
Method in brief: as §1

[5] = target: T5, IR (Homo sapiens, UniProt P06213)
T5 construct: purchased Reaction Biology Corp
Method in brief: as §1

[6] = target: T6, MSK1/RPS6KA5 (Homo sapiens, UniProt O75582)
T6 construct: purchased Reaction Biology Corp
T6 sequence (O75582 whole entry): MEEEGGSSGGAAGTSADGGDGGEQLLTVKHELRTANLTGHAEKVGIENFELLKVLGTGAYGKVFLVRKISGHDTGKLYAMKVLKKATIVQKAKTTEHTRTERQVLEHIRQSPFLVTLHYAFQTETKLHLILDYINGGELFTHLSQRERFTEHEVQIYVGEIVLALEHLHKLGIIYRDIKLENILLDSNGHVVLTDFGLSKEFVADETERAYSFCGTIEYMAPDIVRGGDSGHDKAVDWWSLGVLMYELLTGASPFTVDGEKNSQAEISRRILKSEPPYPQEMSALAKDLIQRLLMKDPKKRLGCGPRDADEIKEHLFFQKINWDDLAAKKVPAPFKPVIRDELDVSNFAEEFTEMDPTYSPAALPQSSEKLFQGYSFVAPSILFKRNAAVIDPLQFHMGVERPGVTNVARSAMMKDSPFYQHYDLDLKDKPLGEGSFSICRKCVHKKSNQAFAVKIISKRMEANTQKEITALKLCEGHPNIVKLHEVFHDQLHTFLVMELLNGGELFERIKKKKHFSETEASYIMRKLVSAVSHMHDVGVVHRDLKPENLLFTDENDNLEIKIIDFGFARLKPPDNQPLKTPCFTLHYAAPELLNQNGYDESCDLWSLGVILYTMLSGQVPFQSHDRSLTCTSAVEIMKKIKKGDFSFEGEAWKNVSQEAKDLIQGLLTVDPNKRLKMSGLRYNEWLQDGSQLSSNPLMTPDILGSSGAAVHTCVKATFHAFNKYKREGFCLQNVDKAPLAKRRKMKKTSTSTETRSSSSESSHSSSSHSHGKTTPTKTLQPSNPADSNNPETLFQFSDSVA
Method in brief: as §1

[7] = target: T7, ROS/ROS1 (Homo sapiens, UniProt P08922)
T7 construct: purchased Reaction Biology Corp
T7 sequence (P08922 28-2347): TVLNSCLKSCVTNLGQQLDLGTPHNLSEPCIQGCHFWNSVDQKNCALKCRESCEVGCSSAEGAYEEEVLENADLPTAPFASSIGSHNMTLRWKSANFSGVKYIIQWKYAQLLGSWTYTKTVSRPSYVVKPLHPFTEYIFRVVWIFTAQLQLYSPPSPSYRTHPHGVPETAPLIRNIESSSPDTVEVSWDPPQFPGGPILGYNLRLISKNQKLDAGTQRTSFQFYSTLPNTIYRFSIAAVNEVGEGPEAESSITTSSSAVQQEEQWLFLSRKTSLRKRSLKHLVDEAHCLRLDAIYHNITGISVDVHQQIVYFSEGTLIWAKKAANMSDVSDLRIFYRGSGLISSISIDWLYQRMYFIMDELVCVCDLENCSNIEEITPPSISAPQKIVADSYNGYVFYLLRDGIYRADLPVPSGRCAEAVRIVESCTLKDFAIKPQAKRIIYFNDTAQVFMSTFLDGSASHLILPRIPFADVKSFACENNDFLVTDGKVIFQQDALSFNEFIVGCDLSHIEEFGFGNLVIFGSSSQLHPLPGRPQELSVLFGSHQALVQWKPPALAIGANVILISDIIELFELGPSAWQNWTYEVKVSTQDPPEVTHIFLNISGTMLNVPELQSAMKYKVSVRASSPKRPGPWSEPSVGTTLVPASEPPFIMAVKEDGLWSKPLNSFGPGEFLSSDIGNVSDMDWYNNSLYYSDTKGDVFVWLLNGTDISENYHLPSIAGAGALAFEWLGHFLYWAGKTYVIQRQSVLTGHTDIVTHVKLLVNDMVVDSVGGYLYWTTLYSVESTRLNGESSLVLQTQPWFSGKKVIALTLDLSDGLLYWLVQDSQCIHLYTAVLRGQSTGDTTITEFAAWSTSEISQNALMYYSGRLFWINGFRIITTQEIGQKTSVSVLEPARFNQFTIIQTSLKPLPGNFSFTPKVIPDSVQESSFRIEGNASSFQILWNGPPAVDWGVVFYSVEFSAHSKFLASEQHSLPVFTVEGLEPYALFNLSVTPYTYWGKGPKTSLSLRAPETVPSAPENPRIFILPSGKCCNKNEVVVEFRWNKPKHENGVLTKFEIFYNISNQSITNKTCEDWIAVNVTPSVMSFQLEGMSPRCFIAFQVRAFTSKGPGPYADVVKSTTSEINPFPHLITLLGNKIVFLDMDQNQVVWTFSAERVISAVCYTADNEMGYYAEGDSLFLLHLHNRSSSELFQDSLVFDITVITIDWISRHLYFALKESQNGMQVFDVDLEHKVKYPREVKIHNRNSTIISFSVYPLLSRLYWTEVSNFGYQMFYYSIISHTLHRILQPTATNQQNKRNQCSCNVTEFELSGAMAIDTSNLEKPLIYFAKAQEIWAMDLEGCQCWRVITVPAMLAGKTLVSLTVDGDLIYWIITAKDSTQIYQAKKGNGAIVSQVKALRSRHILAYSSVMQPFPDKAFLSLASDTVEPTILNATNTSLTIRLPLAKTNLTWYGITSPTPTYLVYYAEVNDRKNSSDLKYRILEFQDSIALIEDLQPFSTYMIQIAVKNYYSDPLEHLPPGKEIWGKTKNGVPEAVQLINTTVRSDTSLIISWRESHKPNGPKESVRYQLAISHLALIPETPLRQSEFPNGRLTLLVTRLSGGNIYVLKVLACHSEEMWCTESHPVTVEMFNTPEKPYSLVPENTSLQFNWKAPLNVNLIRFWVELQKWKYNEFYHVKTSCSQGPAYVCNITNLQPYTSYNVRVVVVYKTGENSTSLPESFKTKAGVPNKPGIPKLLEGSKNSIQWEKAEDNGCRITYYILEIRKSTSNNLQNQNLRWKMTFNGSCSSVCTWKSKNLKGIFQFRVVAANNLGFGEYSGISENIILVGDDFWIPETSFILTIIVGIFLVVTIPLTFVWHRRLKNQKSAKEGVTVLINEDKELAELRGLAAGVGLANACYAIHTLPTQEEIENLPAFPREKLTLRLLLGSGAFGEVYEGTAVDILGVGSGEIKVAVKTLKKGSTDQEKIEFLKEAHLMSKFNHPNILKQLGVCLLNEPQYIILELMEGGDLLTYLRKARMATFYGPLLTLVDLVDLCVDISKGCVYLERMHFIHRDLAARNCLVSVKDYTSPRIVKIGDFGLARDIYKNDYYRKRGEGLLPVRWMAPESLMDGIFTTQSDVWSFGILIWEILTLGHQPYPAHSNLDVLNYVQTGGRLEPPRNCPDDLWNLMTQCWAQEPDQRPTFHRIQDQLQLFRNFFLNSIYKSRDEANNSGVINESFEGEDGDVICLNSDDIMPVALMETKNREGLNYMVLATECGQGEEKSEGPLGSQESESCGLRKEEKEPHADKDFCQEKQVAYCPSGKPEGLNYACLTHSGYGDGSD
Method in brief: as §1

[8] = target: T8, SGK2 (Homo sapiens, UniProt Q9HBY8)
T8 construct: purchased Reaction Biology Corp
T8 sequence (Q9HBY8 1-367): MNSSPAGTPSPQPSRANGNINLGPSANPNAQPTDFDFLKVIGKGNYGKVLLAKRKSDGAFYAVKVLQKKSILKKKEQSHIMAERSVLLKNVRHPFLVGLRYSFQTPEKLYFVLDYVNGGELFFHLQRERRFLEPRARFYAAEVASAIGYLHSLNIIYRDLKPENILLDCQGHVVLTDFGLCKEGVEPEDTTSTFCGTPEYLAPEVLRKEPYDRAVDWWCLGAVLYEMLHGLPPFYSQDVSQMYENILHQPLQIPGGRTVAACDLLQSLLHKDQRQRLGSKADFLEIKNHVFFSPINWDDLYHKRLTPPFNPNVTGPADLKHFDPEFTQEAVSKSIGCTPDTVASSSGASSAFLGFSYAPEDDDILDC
Method in brief: as §1

[9] = target: T9, TLK2 (Homo sapiens, UniProt Q86UE8)
T9 construct: purchased Reaction Biology Corp
Method in brief: as §1

[10] = target: T10, TRKB (Homo sapiens, UniProt Q16620)
T10 construct: purchased Reaction Biology Corp
T10 sequence (Q16620 32-822): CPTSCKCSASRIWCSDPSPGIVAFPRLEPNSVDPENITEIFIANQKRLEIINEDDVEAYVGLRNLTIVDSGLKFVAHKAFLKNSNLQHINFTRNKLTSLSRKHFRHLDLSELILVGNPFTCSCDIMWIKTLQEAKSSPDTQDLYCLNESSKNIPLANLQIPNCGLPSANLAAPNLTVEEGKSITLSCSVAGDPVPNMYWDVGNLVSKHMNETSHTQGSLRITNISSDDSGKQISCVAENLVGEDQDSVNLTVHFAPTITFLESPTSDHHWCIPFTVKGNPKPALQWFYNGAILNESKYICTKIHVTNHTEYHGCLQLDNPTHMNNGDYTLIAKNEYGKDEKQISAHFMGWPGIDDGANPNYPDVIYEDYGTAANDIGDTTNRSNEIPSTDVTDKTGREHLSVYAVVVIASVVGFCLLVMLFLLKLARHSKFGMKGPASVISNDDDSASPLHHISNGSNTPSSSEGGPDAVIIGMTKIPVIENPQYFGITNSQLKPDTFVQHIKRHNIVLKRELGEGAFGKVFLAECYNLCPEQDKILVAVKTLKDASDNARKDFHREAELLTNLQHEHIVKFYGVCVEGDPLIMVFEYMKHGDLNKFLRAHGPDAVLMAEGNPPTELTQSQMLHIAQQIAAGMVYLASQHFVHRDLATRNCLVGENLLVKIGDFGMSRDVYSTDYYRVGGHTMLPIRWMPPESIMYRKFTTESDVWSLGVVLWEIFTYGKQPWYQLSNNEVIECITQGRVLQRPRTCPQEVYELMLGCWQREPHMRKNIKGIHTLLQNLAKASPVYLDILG
Method in brief: as §1

[11] = target: T11, TYK1/LTK (Homo sapiens, UniProt P29376)
T11 construct: purchased Reaction Biology Corp
Method in brief: as §1

[12] = read-out: % Enzyme Activity (relative to DMSO controls) Run 1
[13] = read-out: % Enzyme Activity (relative to DMSO controls) Run 2

T1 sequence (P50750 whole entry): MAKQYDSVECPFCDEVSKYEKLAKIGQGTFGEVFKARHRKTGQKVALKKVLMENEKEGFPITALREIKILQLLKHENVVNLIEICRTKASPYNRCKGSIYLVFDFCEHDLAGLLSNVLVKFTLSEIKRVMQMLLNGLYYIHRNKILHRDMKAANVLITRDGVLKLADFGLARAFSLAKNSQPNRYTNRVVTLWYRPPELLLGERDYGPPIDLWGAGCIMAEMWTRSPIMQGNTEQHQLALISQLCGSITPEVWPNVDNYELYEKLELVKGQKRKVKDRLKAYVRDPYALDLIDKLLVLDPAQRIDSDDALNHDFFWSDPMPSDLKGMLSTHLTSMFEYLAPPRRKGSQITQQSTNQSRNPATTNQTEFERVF
T1 sequence (O75909 whole entry partner): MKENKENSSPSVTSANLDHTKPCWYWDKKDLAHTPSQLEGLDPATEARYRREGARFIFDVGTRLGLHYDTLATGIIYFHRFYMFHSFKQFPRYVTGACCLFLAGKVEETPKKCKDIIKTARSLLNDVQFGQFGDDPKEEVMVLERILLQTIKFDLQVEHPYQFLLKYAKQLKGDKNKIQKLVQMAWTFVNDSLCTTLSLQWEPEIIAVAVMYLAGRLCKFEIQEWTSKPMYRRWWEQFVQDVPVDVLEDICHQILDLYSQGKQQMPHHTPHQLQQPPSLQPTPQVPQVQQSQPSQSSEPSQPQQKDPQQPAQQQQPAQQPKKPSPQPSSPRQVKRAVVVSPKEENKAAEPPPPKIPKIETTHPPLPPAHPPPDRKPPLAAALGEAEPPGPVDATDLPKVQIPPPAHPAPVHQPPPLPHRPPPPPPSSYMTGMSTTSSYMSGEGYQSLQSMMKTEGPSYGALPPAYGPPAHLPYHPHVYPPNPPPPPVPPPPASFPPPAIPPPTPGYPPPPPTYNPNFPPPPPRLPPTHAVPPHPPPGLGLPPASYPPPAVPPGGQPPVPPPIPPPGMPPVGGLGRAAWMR

C=CC(=O)Nc1cccc(Nc2nc(Nc3ccc(OCCOC)c(F)c3)ncc2F)c1 [Compound 2]
inhibition at 3 µM [1]: 18.1% | remaining activity at 3 µM [1, 12]: 81.7% | remaining activity at 3 µM [1, 13]: 82.2% | inhibition at 3 µM [2]: -0.03% | remaining activity at 3 µM [2, 12]: 99.9% | remaining activity at 3 µM [2, 13]: 100% | inhibition at 3 µM [3]: -1.33% | remaining activity at 3 µM [3, 12]: 102% | remaining activity at 3 µM [3, 13]: 101% | inhibition at 3 µM [4]: 9.96% | remaining activity at 3 µM [4, 12]: 89.1% | remaining activity at 3 µM [4, 13]: 90.9% | inhibition at 3 µM [5]: 15.4% | remaining activity at 3 µM [5, 12]: 84.5% | remaining activity at 3 µM [5, 13]: 84.7% | inhibition at 3 µM [6]: 2.7% | remaining activity at 3 µM [6, 12]: 94.9% | remaining activity at 3 µM [6, 13]: 99.7% | inhibition at 3 µM [7]: 86.6% | remaining activity at 3 µM [7, 12]: 13.5% | remaining activity at 3 µM [7, 13]: 13.3% | inhibition at 3 µM [8]: 26% | remaining activity at 3 µM [8, 12]: 71.4% | remaining activity at 3 µM [8, 13]: 76.6% | inhibition at 3 µM [9]: -6.32% | remaining activity at 3 µM [9, 12]: 108% | remaining activity at 3 µM [9, 13]: 105% | inhibition at 3 µM [10]: 14.2% | remaining activity at 3 µM [10, 12]: 86.5% | remaining activity at 3 µM [10, 13]: 85% | inhibition at 3 µM [11]: 23.2% | remaining activity at 3 µM [11, 12]: 77.8% | remaining activity at 3 µM [11, 13]: 75.8%
